Columns and labels:
KM mice = assay: Acute toxicity test in KM mice; format: in vivo; conditions: 500 mg/kg via gavage, 14 days
Experimental: We evaluated the safety of compound 14e using an acute toxicity test in KM mice. Male mice (8–9 weeks old) were randomly divided into a solvent control group and a 14e-treated group. The control group received an equivalent volume of solvent (5% DMSO +40% PEG300 + 1% Tween-80 + 54% saline) via gavage, while the treatment group received compound 14e solution (500 mg/kg). Beginning on day 1 after administration, body weight and general appearance were monitored for 14 days. At the end of the study, blood samples were collected to determine serum levels of Alanine Aminotransferase (ALT) and Aspartate Aminotransferase (AST). In addition, representative organs (heart, liver, spleen, lung, and kidneys) were excised, weighed, and used to calculate organ indices (organ index = organ weight/body weight × 100%).
FIGURE 7 Acute toxicity experiments of compound 14e were conducted in mice. (A) The body wight of mice were recorded for 14 days after treatment. (B) The acute toxicity experiments examined the effects of 14e on mouse organs. (C) Effect of acute toxicity experimental studies on blood biochemical indices ALT and AST in mice.

[1] = tested on: CFA-induced inflammatory pain model; assay: CFA-induced spontaneous pain, flinching and guarding behaviors; format: in vivo; conditions: CFA mice, 30 mg/kg i.p. repeated, 72 h post-CFA
Experimental: To evaluate the analgesic effects of Compound 14e in vivo, we established an inflammatory pain model using intraplantar injection of CFA. Compound 14e (30 mg/kg) was administered intraperitoneally at 6 h, with subsequent doses at 48 and 72 h after CFA injection. Behavioral assessments, including von Frey testing for mechanical allodynia and heat stimuli for thermal hyperalgesia, were conducted on the injected hind paw at baseline (BL), as well as at 6, 12, 18, 24, 48 and 72 h post-CFA injection. Additionally, flinching and guarding behaviors, indicators of spontaneous pain, were evaluated 72 h after CFA injection. […] (A,B) Evaluation of CFA-induced mechanical allodynia as assessed by withdrawal frequency to 0.07 g (A) and 0.4 g (B) von Frey filaments in mice repetitive treated with 10% DMSO or compound 14e. (C) Assessment of CFA-induced thermal hyperalgesia in the latency in mice treated with 10% DMSO or compound 14e. […] The dosage of compound 14e was determined based on our preliminary experiments. Spontaneous nociceptive behavior was recorded in previous studies ([Liu et al., 2023]; [Yang et al., 2018]) Mice were placed in the Plexiglas chamber and allowed to habituate for 30 min. Following acclimatization, the number of flinches and the time spent on guarding behaviors were analyzed for 10 min. […]

IDO1 = target: T1, IDO1 (Homo sapiens, UniProt P14902); assay: HeLa cell-based IDO1 inhibition assay; conditions: HeLa cells, 100 ng/mL human IFN-γ, 18 h, kynurenine absorbance at 480 nm
T1 construct: endogenous in cells; host or cells: HeLa cells stimulated with 100 ng/mL human IFN-γ
T1 sequence (P14902 whole entry): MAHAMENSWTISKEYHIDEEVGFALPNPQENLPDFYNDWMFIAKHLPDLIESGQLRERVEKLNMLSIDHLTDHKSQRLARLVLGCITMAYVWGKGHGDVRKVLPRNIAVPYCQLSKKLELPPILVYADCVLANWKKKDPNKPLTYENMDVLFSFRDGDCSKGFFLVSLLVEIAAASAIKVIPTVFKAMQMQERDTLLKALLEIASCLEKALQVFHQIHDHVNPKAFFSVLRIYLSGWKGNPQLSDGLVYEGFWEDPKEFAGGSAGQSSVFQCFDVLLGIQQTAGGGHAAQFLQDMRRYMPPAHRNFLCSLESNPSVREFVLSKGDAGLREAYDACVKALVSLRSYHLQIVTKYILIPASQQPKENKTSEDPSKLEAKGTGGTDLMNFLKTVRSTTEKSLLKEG
Experimental: To evaluate the IDO1 inhibitory activity of the newly synthesized derivatives, HeLa cells with high IDO1 expression were used as the experimental model. […] To perform the HeLa cell-based IDO1 inhibition assay, HeLa cells were seeded at a density of 50,000 cells per well in a 96-well microplate containing 100 μL of DMEM supplemented with 10% fetal bovine serum and 1% penicillin-streptomycin. The cells were incubated overnight at 37 °C in a humidified atmosphere with 5% CO2. The following day, 100 μL of growth medium containing diluted inhibitors and 100 ng/mL human IFN-γ was added to each well. The cells were then incubated at 37 °C in a CO2 incubator for 18 h. […] The plate was incubated at 50 °C for 30 min and then centrifuged at 2,500 rpm for 10 min to remove any sediment. Next, 100 μL of the supernatant was transferred to a separate 96-well plate and mixed with 100 μL of 2% (w/v) 4-(dimethylamino)benzaldehyde in acetic acid. After a 10-min incubation at room temperature, the absorbance of the resulting yellow color, indicative of kynurenine, was measured at 480 nm using a microplate reader.

Structure (SMILES): O=C1COc2ccc(NC(=O)c3cccc(-c4cn(Cc5c(F)cccc5Cl)nn4)c3)cc2N1 [Compound 14e]
- acute toxicity, overall (KM mice): does not cause noticeable toxicity
- organ indices (heart, liver, spleen, lung, kidneys) (KM mice): remained stable
- serum ALT level (KM mice): did not significantly affect
- serum AST level (KM mice): did not significantly affect
- body weight (KM mice; versus solvent control): no significant changes
- spontaneous pain behaviors (flinching and guarding) [1]: significantly reduced
- IC50 (IDO1): 3.63 µM
